Data from US20150299250A1, “MACROCYCLIC COMPOUNDS AND USES THEREOF” (ADELAIDE RESEARCH & INNOVATION PTY LTD, priority 2012, published 2015).

Legend:
[1] = tested on: panel of sarcoma cell lines (WE-68, VH-64, STA-ET-1, TC-252); assay: Cell viability assay, panel of four sarcoma cell lines (average); format: cell-based; details: for IC50: average of four sarcoma cell lines, read-out: Average IC50 for cancer cell lines
Protocol: (§1) Cell viability assays were performed as previously described. Briefly, cells were seeded in 96 well microtiterplates at a density of 3×10^4 cells per well in the presence of the indicated chemical. Cells were harvested 48 hours post-treatment, centrifuged at 1,300×g, washed in phosphate-buffered saline (PBS) and stained with 7AAD solution (2 μg/mL) (7-amino-actinomycin-D, Invitrogen, Carlsbad, Calif.) for 10 mins at room temperature. Viable cells were determined with the use of a FACS Calibur flow cytometer (Becton Dickinson Immunocytometry Systems), and analyzed with the use of FLOWJO (Tree Star, Inc) and GraphPad Prism (GraphPad Software Inc).
(§2) WE-68 and VH-64 Ewing's sarcoma cells were kindly supplied by F. van Valen (Department of Orthopaedic Surgery, Westfalische-Wilhelms-University, Germany).TC-252 and STA-ET-1 Ewing's sarcoma cells were kindly provided by G. Hamilton (Department of Surgery, University of Vienna, Austria) or P. Ambros (Children's Cancer Research Institute, St Anna Children's Hospital, Vienna, Austria). Primary human embryonic fibroblasts or primary human osteoblasts were collected from the Women's and Children's Hospital (North Adelaide, South Australia, Australia) or Royal Adelaide Hospital with patient consent. Mouse Embryonic Fibroblasts (MEFs) and its p53-null derivative were kindly supplied by Guillermina Lozano (Department of Genetics, Anderson Cancer Centre, University of Texas, Houston, Tex., USA). WE-68 cell lines were grown in RPMI-1640 media, whilst human embryonic fibroblasts and MEFs were grown in Dulbecco's Modified Eagle's Medium (DMEM). Media was supplemented with 10% FCS, 1% PSG and 10 mM HEPES. All cells were maintained at 37° C. in a humidified atmosphere of 5% CO2.

[2] = tested on: TC-252 Ewing's sarcoma cells; assay: Cell viability assay (7AAD, 48 hours), TC-252; format: cell-based; details: 48 hours exposure; read-out: Cancer cell lines IC50 (μM) TC-252
Protocol: as §1, §2

[3] = target: T1, 20S proteasome CP-L activity (Oryctolagus cuniculus, UniProt A0A5F9DQW2); assay: In vitro proteasome activity assay, CP-L (Z-nLPnLD-AMC); format: biochemical, rabbit; details: purified 20S proteasome; highest concentration tested 25,000 nM
T1 construct: Purified rabbit 20S proteasome
T1 sequence (A0A5F9DQW2 1-212): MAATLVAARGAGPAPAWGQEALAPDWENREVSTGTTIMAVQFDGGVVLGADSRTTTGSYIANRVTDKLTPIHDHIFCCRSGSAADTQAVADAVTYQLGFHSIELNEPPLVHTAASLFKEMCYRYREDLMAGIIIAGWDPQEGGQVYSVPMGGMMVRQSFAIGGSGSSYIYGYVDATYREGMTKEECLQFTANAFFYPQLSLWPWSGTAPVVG
Protocol: We initially determined the ability of the novel tripeptide MG132 analogues 1-6 and the macrocycles 3a and 4a to inhibit the three separate protease activities of the 20S proteasome (CT-L, -T-L and CP-L). The assays were performed in vitro using purified 20S proteasome/inhibitor mixtures, with the activity of each subunit of the proteasome assessed upon incubation with its respective target peptide. […] In addition, there is no apparent clear-cut preference for the length of tether (compare compounds 1 to 4), while the introduction of an aryl group at P3 (as in 6) is well tolerated.
Purified rabbit 20S proteasome and fluorogenic CT-L substrate (Suc-LLVY-AMC) were purchased from Boston Biochem (Cambridge, Mass., USA). The T-L and CP-L fluorogenic substrates (Ac-RLR-AMC and Z-nLPnLD-AMC) were purchased from Enzo Life Sciences (Farmingdale, N.Y., USA). The 20S proteasome was diluted to 0.2 μg/μL in 20S proteasome buffer (50 mM HEPES pH 7.6, 150 mM NaCl and 1 mM DDT) and stored at −80° C. Purified 20S proteasome (8 ng) was pre-incubated with the indicated concentrations of inhibitors for 15 minutes and subsequently added to the AMC-labeled substrate peptide (50 μM) in assay buffer (25 mM HEPES, pH 7.5, 0.5 mM EDTA, 0.05% NP-40, and 0.001% SDS (w/v)) at 37° C. for 2 hours. Fluorescent substrate cleavage by the 20S proteasome was linear during this incubation timeframe (Supplementary Figure S4. Hydrolysed 7-amino-4-methylcoumarin (AMC) was subsequently detected with the FLUOstar OPTIMA microplatefluorometer at excitation/emission of 390/460 nm. The activity was estimated in relative fluorescence units and half of the maximal inhibitory activity of the proteasome is represented by IC50 values. A minimum of three biological replicates were performed for each data point.

[4] = target: T2, 20S proteasome T-L activity (Oryctolagus cuniculus, UniProt G1SWK8); assay: In vitro proteasome activity assay, T-L (Ac-RLR-AMC); format: biochemical, rabbit; details: for IC50: purified 20S proteasome, highest concentration tested 25,000 nM
T2 construct: purchased Boston Biochem
T2 sequence (G1SWK8 1-271): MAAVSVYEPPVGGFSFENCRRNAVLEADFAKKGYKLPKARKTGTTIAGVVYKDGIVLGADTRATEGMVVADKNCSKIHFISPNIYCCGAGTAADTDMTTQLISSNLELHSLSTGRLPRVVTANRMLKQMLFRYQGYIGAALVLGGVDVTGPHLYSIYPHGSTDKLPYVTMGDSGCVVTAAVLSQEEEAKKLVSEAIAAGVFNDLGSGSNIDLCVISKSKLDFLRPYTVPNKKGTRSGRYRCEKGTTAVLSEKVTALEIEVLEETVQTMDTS
Protocol: (§3) The assays were performed in vitro using purified 20S proteasome/inhibitor mixtures, with the activity of each subunit of the proteasome assessed upon incubation with its respective target peptide.
(§4) Purified rabbit 20S proteasome and fluorogenic CT-L substrate (Suc-LLVY-AMC) were purchased from Boston Biochem (Cambridge, Mass., USA). The T-L and CP-L fluorogenic substrates (Ac-RLR-AMC and Z-nLPnLD-AMC) were purchased from Enzo Life Sciences (Farmingdale, N.Y., USA). The 20S proteasome was diluted to 0.2 μg/μL in 20S proteasome buffer (50 mM HEPES pH 7.6, 150 mM NaCl and 1 mM DDT) and stored at −80° C. Purified 20S proteasome (8 ng) was pre-incubated with the indicated concentrations of inhibitors for 15 minutes and subsequently added to the AMC-labeled substrate peptide (50 μM) in assay buffer (25 mM HEPES, pH 7.5, 0.5 mM EDTA, 0.05% NP-40, and 0.001% SDS (w/v)) at 37° C. for 2 hours.

[5] = tested on: VH-64 Ewing's sarcoma cells; assay: Cell viability assay (7AAD, 48 hours), VH-64; format: cell-based; details: 48 hours exposure; read-out: Cancer cell lines IC50 (μM) VH-64
Protocol: as §1, §2

[6] = tested on: primary human embryonic fibroblasts; assay: Cell viability assay (7AAD, 48 hours), normal fibroblasts; format: cell-based; details: Fibroblast, 48 hours exposure, read-out: Normal cell lines IC50 (μM) Fibroblasts
Protocol: as §1, §2

[7] = tested on: primary human osteoblasts; assay: Cell viability assay (7AAD, 48 hours), normal osteoblasts; format: cell-based; details: Osteoblast, 48 hours exposure, read-out: Normal cell lines IC50 (μM) Osteoblasts
Protocol: as §1, §2

[8] = tested on: normal cell lines (fibroblasts, osteoblasts); assay: Cell viability assay, normal cell lines (average); format: cell-based; details: Homo sapiens; average of fibroblasts and osteoblasts
Protocol: as §1, §2

[9] = tested on: STA-ET-1 Ewing's sarcoma cells; assay: Cell viability assay (7AAD, 48 hours), STA-ET-1; format: cell-based; details: 48 hours exposure; read-out: Cancer cell lines IC50 (μM) STA-ET-1
Protocol: as §1, §2

[10] = tested on: WE-68 Ewing's sarcoma cells; assay: Cell viability assay (7AAD, 48 hours), WE-68; format: cell-based; details: 48 hours exposure; read-out: Cancer cell lines IC50 (μM) WE-68
Protocol: as §1, §2

[11] = target: bovine α-chymotrypsin (bCT) (Bos taurus, UniProt P00766); assay: Bovine chymotrypsin spectrophotometric assay (Suc-Ala-Ala-Pro-Phe-pNA); format: biochemical
Protocol: The activity of bCT was assayed spectrophotometrically with a Varian Cary 5000 UV-VIS-NIR spectrophotometer equipped with a thermostated multicell holder at 25.0±0.1° C. Assay buffer was: Tris-HCl (77 mM), CaCl2 (20 mM), pH 7.8 (pH optimum of α-chymotrypsin {3}). A solution of bCT (21.9 μg/mL) in aq HCl (1 mM) was prepared daily by a 1:40 dilution of a stock solution (874 μg/mL) in aq HCl (1 mM) and kept at 0° C. A 1:100 dilution in ice-cold aq HCl (1 mM) was prepared immediately before starting each measurement. Stock solutions of the substrate Suc-Ala-Ala-Pro-Phe-pNA (10 mM) and all inhibitors (5 mM) were freshly prepared in DMSO and stored at r.t. All compounds were analyzed at five different inhibitor concentrations, [I]. Progress curves were monitored at 405 nm over 6 min and characterized by a linear steady state turnover of the substrate.
The Inhibition studies were performed in the presence of 6% v/v DMSO in a volume of 1 mL containing 0.011 μg/mL bCT, different concentrations of Suc-Ala-Ala-Pro-Phe-pNA (10-100 μM) and inhibitor. Into a cuvette containing 890 μL assay buffer, 10 μL of substrate solution (1-10 mM), inhibitor stock, and DMSO were added to give a total volume of […]. After thoroughly mixing the contents of the cuvette, the enzymatic reaction was initiated by adding 50 μL of bCT solution. Uninhibited enzyme activity was determined by adding DMSO instead of inhibitor solution. Non-enzymatic hydrolysis of Suc-Ala-Ala-Pro-Phe-pNA was analyzed by adding DMSO and 1 mM aqueous HCl instead of inhibitor and enzyme solution, respectively, and found to be negligible. The rate of enzyme-catalyzed hydrolysis of 100 μM substrate was determined without inhibitor in each experiment and was set to 100%. Ki values of inhibitors were determined graphically according to Dixon {4} using mean values of percentage rates obtained in three separate experiments at two different substrate concentrations, [S].

[12] = target: T3, 20S proteasome chymotrypsin-like (CT-L) activity (Oryctolagus cuniculus, UniProt G1T4Q9); assay: In vitro proteasome activity assay, CT-L (Suc-LLVY-AMC); format: biochemical, rabbit; details: purified 20S proteasome
T3 sequence (G1T4Q9 1-263): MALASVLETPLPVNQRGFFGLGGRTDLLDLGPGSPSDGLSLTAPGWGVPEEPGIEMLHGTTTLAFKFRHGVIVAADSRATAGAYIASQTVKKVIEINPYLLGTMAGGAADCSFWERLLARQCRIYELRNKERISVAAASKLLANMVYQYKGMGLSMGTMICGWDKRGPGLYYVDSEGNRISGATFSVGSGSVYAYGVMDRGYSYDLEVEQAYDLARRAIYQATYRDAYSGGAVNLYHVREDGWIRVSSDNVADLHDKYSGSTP
Protocol: as §3, §4

SMILES	IC50 [1] [nM]	IC50 [2] [µM]	IC50 [3] [nM]	IC50 [4] [nM]	IC50 [5] [µM]	IC50 [9] [µM]	IC50 [10] [µM]	Ki [11] [nM]	IC50 [6] [µM]	IC50 [7] [µM]	further results
CC(C)C[C@H](NC(=O)[C@H](Cc1ccccc1)NC(=O)c1cnccn1)B(O)O [Bortezomib, reference compound]	20	0.01	438	> 25000	0.04	< 0.0008	0.02	–	0.02	0.28	Therapeutic window ([1]; fold change in potency (IC50) against cancer cell line versus normal cell line): ×9.1; activation of T-L activity [4]: ^fBortezomib activated T-L activity by 32%.; IC50 [8]: 150 nM
O=C[C@H](Cc1ccccc1)NC(=O)[C@@H]1CCCCCCCCCCCC(=O)c2ccc([nH]2)C(=O)N1 [Compound 1d, (S)-2,16-dioxo-N—((S)-1-oxo-3-phenylpropan-2-yl)-3,20-diazabicyclo[15.2.1]icosa-1(19),17-diene-4-carboxamide]	–	–	–	–	–	–	–	2520 ± 248	–	–	–
CC(C)CC(C=O)NC(=O)C1Cc2ccc(cc2)OCCCCOc2ccc(cc2)CCC(=O)c2ccc([nH]2)C(=O)N1 (centres unmarked) [Compound 3c]	–	–	–	–	–	–	–	1920 ± 167	–	–	–
CC(C)CC1NC(=O)C(NC(=O)OCc2ccccc2)CCCCn2cc(nn2)COc2ccc(cc2)CC(C=O)NC1=O (centres unmarked) [Compound 4a]	31700	39.4	> 25000	> 25000	> 50	37.6	18	–	> 50	> 50	IC50 [12]: 250 nM

Now from value to compound, other results behind:

IC50 [1] [nM]	IC50 [2] [µM]	IC50 [3] [nM]	IC50 [4] [nM]	IC50 [5] [µM]	IC50 [9] [µM]	IC50 [10] [µM]	Ki [11] [nM]	SMILES	IC50 [6] [µM]	IC50 [7] [µM]	further results
–	–	–	–	–	–	–	431 ± 5	O=CC(Cc1ccccc1)NC(=O)C1CCCCOc2ccc(cc2)CCC(=O)c2ccc([nH]2)C(=O)N1 (centres unmarked) [Compound 2d]	–	–	–
–	–	–	–	–	–	–	33 ± 5	O=CC(Cc1ccccc1)NC(=O)C1Cc2ccc(cc2)OCCCCOc2ccc(cc2)CCC(=O)c2ccc([nH]2)C(=O)N1 (centres unmarked) [Compound 3d]	–	–	–
